Read-outs that look alike come from different tables or passages of the source.
Experiments:
[1] = biological target: ROCK1 (Homo sapiens (Human), UniProt Q13464); assay: Z'Lyte assay, ROCK1 inhibition at a single concentration; format: biochemical
[2] = test system: cofilin phosphorylation, HeLa cells; assay: Cofilin phosphorylation by Western Blot (anti-phospho-Ser3-cofilin) in HeLa cells; format: cell-based; conditions: for inhibition at 25 µM: Homo sapiens; for inhibition at 25 µM / % inhibition Cofilin phosphorylation HeLa cells treated 2 h with 25 uM of inhibitor: 2 h
[3] = test system: cofilin phosphorylation, MPNST88-14 cells; assay: Cofilin phosphorylation by Western Blot in MPNST88-14 cells; format: cell-based
[4] = test system: U2OS cells; assay: Wound-healing migration assay; format: cell-based; conditions: 2.5 μM, 24 h
[5] = biological target: LIMK2 (Homo sapiens (Human), UniProt P53671); assay: Lanthascreen Eu binding assay (TR-FRET), inhibition of LIMK2
[6] = test system: U2OS cells; assay: Microtubule dynamics by visualizing mitotic spindles; format: cell-based; conditions: 2.5 μM, 24 hours
[7] = biological target: ROCK2 (Homo sapiens (Human), UniProt O75116); assay: Z'Lyte assay, ROCK2 inhibition at a single concentration; format: biochemical
[8] = biological target: LIMK1 (Homo sapiens (Human), UniProt P53667); assay: Lanthascreen Eu binding assay (TR-FRET), inhibition of LIMK1
[9] = test system: cofilin phosphorylation, MPNST90-8 cells; assay: Cofilin phosphorylation by Western Blot in MPNST90-8 cells; format: cell-based; conditions: for inhibition at 25 µM: read-out: % inhibition Cofilin phosphorylation MPNST90-8 cells treated 2 h with 25 uM of inhibitor, MPNST90-8 cells, 25 uM
[10] = test system: SOD1-G93A transgenic mice; assay: In vivo assay on a mouse model of ALS; conditions: 10 mg/Kg intraperitoneal, 2 times a week from week 8
[11] = test system: MPNST cell line; conditions: published data; cited from earlier work
[12] = test system: HeLa cells; assay: Cytotoxicity, CellTiter-Glo Luminescent Cell Viability assay, HeLa; format: cell-based; conditions: 48 hours, read-out: EC50 (inhibitor concentration corresponding to half of live cells)
[13] = biological target: LIMK1 and LIMK2; assay: Lanthascreen Eu binding assay, Ki without LIMK isoform; conditions: LIMK isoform not stated
[14] = read-out: % inhibition (ROCK1) 1 uM, 1 uM
[15] = HeLa, read-out: % inhibition of cofilin phosphorylation in HeLa cells (treatment 2 h, at 25 μM), Table 2, normalized to the control condition DMSO
[16] = read-out: % inhibition Cofilin phosphorylation HeLa cells treated 2 h with 25 uM of inhibitor, HeLa cells, 25 uM
[17] = read-out: % inhibition Cofilin phosphorylation MPNST88-14 cells treated 2 h with 25 uM of inhibitor, MPNST88-14 cells, 25 uM
[18] = read-out: % inhibition (ROCK2) 1 uM, 1 uM
[19] = Table 2, normalized to the control condition DMSO

Chain of LIMK2 (P53671 whole entry): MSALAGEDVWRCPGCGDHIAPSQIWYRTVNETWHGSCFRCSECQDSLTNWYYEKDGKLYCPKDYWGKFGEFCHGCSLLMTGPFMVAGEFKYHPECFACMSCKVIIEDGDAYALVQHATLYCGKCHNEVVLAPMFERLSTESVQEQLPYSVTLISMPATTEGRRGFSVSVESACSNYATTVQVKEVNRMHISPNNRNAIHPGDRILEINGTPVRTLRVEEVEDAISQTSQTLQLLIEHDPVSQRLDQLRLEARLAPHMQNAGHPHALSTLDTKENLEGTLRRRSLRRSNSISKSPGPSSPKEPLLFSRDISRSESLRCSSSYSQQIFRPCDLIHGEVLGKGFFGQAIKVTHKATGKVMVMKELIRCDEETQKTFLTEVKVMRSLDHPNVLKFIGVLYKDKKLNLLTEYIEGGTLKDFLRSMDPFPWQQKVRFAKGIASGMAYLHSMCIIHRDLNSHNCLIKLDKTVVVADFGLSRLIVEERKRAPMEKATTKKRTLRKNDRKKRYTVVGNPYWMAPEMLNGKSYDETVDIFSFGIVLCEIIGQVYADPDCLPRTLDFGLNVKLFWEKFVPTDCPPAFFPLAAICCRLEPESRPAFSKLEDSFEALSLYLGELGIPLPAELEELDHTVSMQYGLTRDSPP
Chain of ROCK2 (O75116 whole entry): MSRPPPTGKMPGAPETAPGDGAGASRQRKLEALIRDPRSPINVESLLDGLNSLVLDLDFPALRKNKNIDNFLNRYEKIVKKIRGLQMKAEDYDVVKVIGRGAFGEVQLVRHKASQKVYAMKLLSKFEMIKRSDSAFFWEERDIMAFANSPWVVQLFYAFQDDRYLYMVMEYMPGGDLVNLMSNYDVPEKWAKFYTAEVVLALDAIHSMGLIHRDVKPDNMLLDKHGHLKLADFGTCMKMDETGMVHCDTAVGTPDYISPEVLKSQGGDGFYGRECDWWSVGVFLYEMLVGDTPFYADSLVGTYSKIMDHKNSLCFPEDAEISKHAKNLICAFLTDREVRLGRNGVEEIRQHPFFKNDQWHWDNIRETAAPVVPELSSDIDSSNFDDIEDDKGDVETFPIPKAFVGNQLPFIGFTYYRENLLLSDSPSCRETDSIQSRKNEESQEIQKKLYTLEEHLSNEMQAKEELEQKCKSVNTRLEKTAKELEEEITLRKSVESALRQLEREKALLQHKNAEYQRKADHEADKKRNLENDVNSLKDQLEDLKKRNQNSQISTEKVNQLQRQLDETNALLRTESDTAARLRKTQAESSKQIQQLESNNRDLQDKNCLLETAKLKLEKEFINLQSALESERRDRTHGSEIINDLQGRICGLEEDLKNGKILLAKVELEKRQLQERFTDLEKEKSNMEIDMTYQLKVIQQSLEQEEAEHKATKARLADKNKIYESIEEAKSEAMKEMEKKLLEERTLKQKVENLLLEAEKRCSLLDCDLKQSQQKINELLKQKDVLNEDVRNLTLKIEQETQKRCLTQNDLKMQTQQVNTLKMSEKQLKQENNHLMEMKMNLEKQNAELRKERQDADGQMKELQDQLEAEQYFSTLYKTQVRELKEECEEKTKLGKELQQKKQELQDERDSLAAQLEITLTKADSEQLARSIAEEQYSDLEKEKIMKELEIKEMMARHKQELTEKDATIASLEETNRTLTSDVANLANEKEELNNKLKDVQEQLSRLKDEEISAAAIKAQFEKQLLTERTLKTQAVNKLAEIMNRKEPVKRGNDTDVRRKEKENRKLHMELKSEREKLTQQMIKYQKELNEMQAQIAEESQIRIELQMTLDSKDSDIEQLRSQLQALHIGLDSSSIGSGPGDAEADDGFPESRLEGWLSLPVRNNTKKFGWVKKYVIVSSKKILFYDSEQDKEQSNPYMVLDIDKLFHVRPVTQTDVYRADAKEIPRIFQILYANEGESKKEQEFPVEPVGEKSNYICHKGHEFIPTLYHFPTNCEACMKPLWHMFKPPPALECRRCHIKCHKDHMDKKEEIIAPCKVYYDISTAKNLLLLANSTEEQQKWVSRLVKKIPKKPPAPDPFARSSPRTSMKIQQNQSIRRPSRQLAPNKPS
Chain of ROCK1 (Q13464 whole entry): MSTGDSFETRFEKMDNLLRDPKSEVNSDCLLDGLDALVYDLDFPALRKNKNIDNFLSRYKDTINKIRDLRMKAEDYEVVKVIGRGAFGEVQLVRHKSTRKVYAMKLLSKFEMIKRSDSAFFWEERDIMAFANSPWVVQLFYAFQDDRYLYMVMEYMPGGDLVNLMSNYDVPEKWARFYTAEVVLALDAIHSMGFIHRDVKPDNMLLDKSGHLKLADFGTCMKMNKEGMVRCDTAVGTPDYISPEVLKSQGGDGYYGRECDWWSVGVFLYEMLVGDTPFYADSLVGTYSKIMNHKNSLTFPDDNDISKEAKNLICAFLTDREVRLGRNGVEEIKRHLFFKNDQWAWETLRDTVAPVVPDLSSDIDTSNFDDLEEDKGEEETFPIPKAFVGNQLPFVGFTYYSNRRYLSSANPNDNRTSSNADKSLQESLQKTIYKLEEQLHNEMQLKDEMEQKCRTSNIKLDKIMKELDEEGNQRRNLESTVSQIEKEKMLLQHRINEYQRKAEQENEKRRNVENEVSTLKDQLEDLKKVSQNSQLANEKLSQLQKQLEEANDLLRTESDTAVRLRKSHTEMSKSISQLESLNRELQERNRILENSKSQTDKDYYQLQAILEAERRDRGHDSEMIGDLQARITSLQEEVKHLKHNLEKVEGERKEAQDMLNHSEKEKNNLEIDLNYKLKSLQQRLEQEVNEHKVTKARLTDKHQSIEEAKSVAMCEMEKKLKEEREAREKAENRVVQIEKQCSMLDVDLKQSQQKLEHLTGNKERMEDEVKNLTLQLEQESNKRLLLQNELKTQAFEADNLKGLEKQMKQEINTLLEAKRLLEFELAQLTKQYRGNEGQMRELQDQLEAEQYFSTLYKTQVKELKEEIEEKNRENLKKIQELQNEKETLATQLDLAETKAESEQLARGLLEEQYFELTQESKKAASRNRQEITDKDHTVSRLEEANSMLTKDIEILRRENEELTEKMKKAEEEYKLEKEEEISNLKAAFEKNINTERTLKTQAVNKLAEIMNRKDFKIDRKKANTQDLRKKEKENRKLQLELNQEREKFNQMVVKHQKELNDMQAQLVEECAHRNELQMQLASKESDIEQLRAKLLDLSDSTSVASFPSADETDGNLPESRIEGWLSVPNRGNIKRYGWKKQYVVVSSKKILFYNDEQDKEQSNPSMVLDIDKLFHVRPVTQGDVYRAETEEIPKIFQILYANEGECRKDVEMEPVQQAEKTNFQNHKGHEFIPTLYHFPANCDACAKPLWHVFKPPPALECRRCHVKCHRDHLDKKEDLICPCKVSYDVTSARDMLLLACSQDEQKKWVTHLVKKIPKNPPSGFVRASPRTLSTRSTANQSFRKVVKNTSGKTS
Chain of LIMK1 (P53667 whole entry): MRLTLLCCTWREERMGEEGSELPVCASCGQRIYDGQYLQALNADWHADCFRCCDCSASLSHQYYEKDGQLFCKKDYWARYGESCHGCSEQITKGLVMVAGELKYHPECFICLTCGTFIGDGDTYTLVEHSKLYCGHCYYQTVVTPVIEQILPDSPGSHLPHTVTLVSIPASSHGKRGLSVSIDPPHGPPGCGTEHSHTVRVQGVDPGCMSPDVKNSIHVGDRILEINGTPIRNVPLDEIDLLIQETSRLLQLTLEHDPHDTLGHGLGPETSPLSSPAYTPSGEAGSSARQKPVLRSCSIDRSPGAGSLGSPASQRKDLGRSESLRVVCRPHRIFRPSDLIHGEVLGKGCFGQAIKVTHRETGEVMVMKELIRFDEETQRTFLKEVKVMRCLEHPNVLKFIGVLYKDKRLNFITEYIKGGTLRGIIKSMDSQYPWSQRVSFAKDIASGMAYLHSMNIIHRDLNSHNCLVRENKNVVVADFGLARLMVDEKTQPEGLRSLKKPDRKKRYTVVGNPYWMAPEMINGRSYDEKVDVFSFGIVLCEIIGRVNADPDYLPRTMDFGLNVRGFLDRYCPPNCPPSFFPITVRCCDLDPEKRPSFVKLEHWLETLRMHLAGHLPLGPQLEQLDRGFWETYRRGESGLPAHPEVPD

inhibition at 1 µM [1, 14] [%]	Ki ([5]; Lanthascreen Eu binding assay) [nM]	inhibition at 1 µM [7, 18] [%]	Ki ([8]; Lanthascreen Eu binding assay) [nM]	Compound	inhibition at 25 µM [2, 15] [%]	inhibition at 25 µM [2, 16] [%]	inhibition at 25 µM [3, 17] [%]	inhibition at 25 µM [9] [%]	also measured
44	14.4	24	19.4	Cc1c[nH]c2ncnc(C3=CCN(C(=O)Nc4cccc(Oc5ccccc5)c4)CC3)c12 [Compound 15, 4-(5-Methyl-7H-pyrrolo[2,3-d]pyrimidin-4-yl)-N-(3-phenoxy-phenyl)-3,6-dihydropyridine-1(2H)-carboxamide]	92.1	92.1	78.6	83.2	inhibition of U2OS cell migration upon scratch [4]: particularly efficient; effects on microtubule dynamics (mitotic spindles) [6]: strong effects on microtubule dynamics
59	103	36	46.6	Cc1c[nH]c2ncnc(C3=CC(C)N(C(=O)Nc4cccc(F)c4)C(C)C3)c12 (stereo not shown) [Compound 57, N-(3-Fluorophenyl)-2,6-dimethyl-4-(5-methyl-7H-pyrrolo[2,3-d]pyrimidin-4-yl)-3,6-dihydropyridine-1(2H)-carboxamide]	90.3	90.3	81	93.3	
				Cc1c[nH]c2ncnc(C3=CC(C)N(C(=O)Nc4cccc(Oc5ccccc5)c4)C(C)C3)c12 (stereo not shown) [Compound 60, 2,6-Dimethyl-4-(5-methyl-7H-pyrrolo[2,3-d]pyrimidin-4-yl)-N-(3-phenoxyphenyl)-3,6-dihydro pyridine-1(2H)-carboxamide]					% inhibition (ROCK1) 1 uM [1]: 11%; % inhibition Cofilin phosphorylation HeLa cells treated 2 h with 25 uM of inhibitor ([2]; HeLa cells, 25 uM): 94.2%; % inhibition of cofilin phosphorylation in HeLa cells (treatment 2 h, at 25 μM) [2, 19]: 94.2%; % inhibition Cofilin phosphorylation MPNST88-14 cells treated 2 h with 25 uM of inhibitor ([3]; MPNST88-14 cells, 25 uM): 74.5%; % inhibition (ROCK2) 1 uM [7]: 7%; % inhibition Cofilin phosphorylation MPNST90-8 cells treated 2 h with 25 uM of inhibitor [9]: 81.1%
10	28.5	-2	29	O=C(Nc1cccc(Oc2ccccc2)c1)N1CC=C(c2ncnc3[nH]c4c(c23)CCC4)CC1 [Compound 125, N-(3-Phenoxyphenyl)-4-(5,6,7,8-tetrahydrocyclopenta[4,5]pyrrolo[2,3-d]pyrimidin-4-yl)-3,6-dihydropyridine-1(2H)-carboxamide]	81.4	81.4	80.8	76.1	
				O=C(Nc1cccc(Br)c1)N1CC=C(c2ncnc3[nH]c4c(c23)COCC4)CC1 [Compound 159, N-(3-Bromophenyl)-4-(5,7,8,9-tetrahydropyrano[3′,4′:4,5]pyrrolo[2,3-d]pyrimidin-4-yl)-3,6-dihydropyridine-1(2H)-carboxamide]					inhibition at 1 µM ([1]; read-out: % inhibition (ROCK1) 1 uM): 11%; inhibition at 25 µM ([2]; HeLa, read-out: % inhibition Cofilin phosphorylation HeLa cells treated 2 h with 25 uM of inhibitor): 70.3%; inhibition at 25 µM ([3]; 2 h, read-out: % inhibition Cofilin phosphorylation MPNST88-14 cells treated 2 h with 25 uM of inhibitor): 64.3%; Ki [5]: 51.5 nM; inhibition at 1 µM ([7]; read-out: % inhibition (ROCK2) 1 uM): 3%; Ki [8]: 51 nM
				Cc1cc(C(=O)Nc2cccc(C(=O)Nc3cccc(C(F)(F)F)c3)c2)on1 [Compound T56-LIMKi]					EC50 [11]: ~20 µM
				CC(C)C(=O)Nc1ncc(-c2cc(C(F)F)nn2-c2c(Cl)cccc2Cl)s1 [LIMKi3]					EC50 [12]: 9 µM
				Cc1c[nH]c2ncnc(N3CCC(CN)(C(=O)Nc4cccc(OC(=O)N(C)C)c4)CC3)c12 [LX7101, reference compound]	85.1				Ki [13]: 3.9 nM

Compound	inhibition at 1 µM [1, 14] [%]	Ki ([5]; Lanthascreen Eu binding assay) [nM]	inhibition at 1 µM [7, 18] [%]	Ki ([8]; Lanthascreen Eu binding assay) [nM]	inhibition at 25 µM [2, 15] [%]	inhibition at 25 µM [2, 16] [%]	inhibition at 25 µM [3, 17] [%]	inhibition at 25 µM [9] [%]	also measured
O=C(Nc1cccc(F)c1)N1CC=C(c2ncnc3[nH]c4c(c23)CCC4)CC1 [Compound 110, N-(3-Fluorophenyl)-4-(5,6,7,8-tetrahydrocyclopenta[4,5]pyrrolo[2,3-d]pyrimidin-4-yl)-3,6-dihydropyridine-1(2H)-carboxamide]	3	41	9	5	79	79			later development of the disease phenotype and endpoint of the disease (survival) [10]: do not observed improvement; loss of weight [10]: significant effect on delaying; onset of motor symptoms (early Neuroscore stages and first time decay in the rotarod test) [10]: significant effect on delaying
CN(C)C(=O)Oc1cccc(NC(=O)N2CC=C(c3ncnc4[nH]c5c(c34)CCC5)CC2)c1 [Compound 122, 3-(4-(5,6,7,8-Tetrahydrocyclopenta[4,5]pyrrolo[2,3-d]pyrimidin-4-yl)-1,2,3,6-tetrahydropyridine-1-carboxamido)phenyl dimethyl carbamate]		4.02		7.11					% inhibition (ROCK1) 1 uM [1]: 4%; % inhibition Cofilin phosphorylation HeLa cells treated 2 h with 25 uM of inhibitor ([2]; HeLa cells, 25 uM): 81.3%; % inhibition of cofilin phosphorylation in HeLa cells (treatment 2 h, at 25 μM) [2, 19]: 81.3%; % inhibition (ROCK2) 1 uM [7]: 14%; % inhibition Cofilin phosphorylation MPNST90-8 cells treated 2 h with 25 uM of inhibitor [9]: 65.6%

Reference: US20230312576A1, “4-(7H-PYRROLO[2,3-D]PYRIMIDIN-4-YL)-3,6-DIHYDROPYRIDINE-1-(2H)-CARBOXAMIDE DERIVATIVES AS LIMK AND/OR ROCK KINASES INHIBITORS FOR USE IN THE TREATMENT OF CANCER” (CENTRE NATIONAL DE LA RECHERCHE SCIENTIFIQUE, priority 2020, published 2023)
